According to patent publication US20150258197A1, “EUTECTIC ISOMETHEPTENE MUCATE” (TONIX PHARMA HOLDINGS LIMITED, priority 2014, published 2015):

What was measured:
[1] = system: mice; assay: Tail-flick Test; type: in vivo; conditions: mouse
Text: (§1) Common mouse models for pain include the Formalin Test (Wheeler-Aceto, et al., Psychopharmacology, 104, 35-44, 1991), the Hot Plate Test (Eddy and Leimbach, J. Pharmacol. Exp. Ther., 107, 385-393, 1953), and the Tail-flick Test (D'Amour and Smith, J. Pharmacol. Exp. Ther., 1, 74-79, 1941). These methods detect analgesic activity of compositions of interest. In the Formalin Test, mice are given an intraplantar injection of 5% formalin into one posterior hindpaw to induce paw licking. Test compositions are given to the mice before treatment with formalin and the mice are evaluated and compared to a control group. In the Hot Plate Test, mice are placed onto a hot metal plate maintained at 54° C. and the latency to the first foot-lick is measured. As with the Formalin test, compositions of interest are given to the mice before the test and the mice are evaluated and compared to a control group. In the Tail-flick Test, a mouse's tail is heated by means of a thermal light source, and the latency before the animal withdraws its tail is measured. Test compositions are administered before the test, and compared with a vehicle control group. The analgesic activity of the compositions described herein can be identified using the mouse formalin, hot plate, and tail-flick tests.
A method for detecting analgesic activity followed that described by D'Amour and Smith (J. Pharmacol. Exp. Ther., 1, 74-79, 1941). The mouse's tail was heated by means of a thermal light source (20 volts). The latency before the animal withdraws its tail was measured (maximum: 15 seconds).
Ten mice were studied per group. The test was performed partially blind.
The test substances selected from (R)-isometheptene mucate, and (S)-isometheptene mucate were evaluated at three doses ([…]), administered p.o. 15 minutes before the test, and compared with a vehicle control group. […]
Data with the test substance were analyzed by comparing treated groups with vehicle control using ANOVA followed by post-hoc Dunnett's tests. Data with the reference substance were analyzed using unpaired Student's t tests.

[2] = system: mice; assay: Formalin Test, late phase (licking score); type: in vivo; conditions: mouse, 5% formalin intraplantar, three doses p.o. 15 minutes before the test, 15-50 min after formalin
Text: as §1, with “Test compositions are administered before the test, and compared with a vehicle control group. The analgesic activity of the compositions described herein can be identified using the mouse formalin, hot plate, and tail-flick tests.” left out
Mice were given an intraplantar injection of 5% formalin (25 μL) into one posterior hindpaw. […] Mice were briefly observed at one minute intervals between 15 and 50 minutes after the injection of formalin and the number of occasions that the mice were observed licking the injected paw was recorded. […]

[3] = DSC/XRPD of binary mixtures of isometheptene mucate and mannitol (eutectic formation); type: physicochemical; conditions: binary mixtures at different ratios
Procedure: Because mannitol is a common excipient in solid drug formulations, it was examined for compatibility with racemic isometheptene mucate and investigated using DSC and the interactions occurring were assessed. […] To confirm the formation of a eutectic and to characterize its physical properties, several binary mixtures at different ratios of racemic isometheptene mucate and excipient were prepared and analyzed by DSC and by XRPD. The eutectic formation improved the cohesion between the racemic isometheptene mucate and excipient particles and assured better physical linking between the two.
In order to confirm the eutectic formation and to characterize its physical properties, several binary mixtures at different ratios of racemic isometheptene mucate-excipient were prepared and analyzed by DSC and by X-ray powder diffraction (XRPD). […] For each DSC heating curve, the onset temperature and the enthalpy were evaluated both for the eutectic contribute and for the excess of component. The recorded values were plotted and a phase diagram between the two components was obtained with a characteristic profile of phase diagrams of eutectic mixtures. […]
Aliquots of racemic isometheptene mucate API and mannitol were weighed in the ratios described below and ground in an agate mortar, and the homogeneous mixtures subsequently analyzed. […]

Interaction with mannitol (eutectic vs adduct) [3]: only a physical eutectic formation
Structure (SMILES): CN[C@H](C)CCC=C(C)C [(R)-isometheptene mucate]
Tail-flick activity relative to morphine ([1]; 100 mg/kg p.o. versus morphine 32 mg/kg): activity similar to that of morphine
Tail flick latency compared to vehicle ([1]; thermal light source, three doses (10, 30, 100) p.o. 15 minutes before the test): longer tail flick latency times
Licking score compared to vehicle [2]: reduction in licking score
